Test results: ChEMBL document CHEMBL6182895, “Synthesis, in vitro and in vivo evaluation, and computational modeling analysis of thioxothiazolidine derivatives as highly potent and selective α-amylase inhibitors” (Eur J Med Chem, 2025)

What was measured:
[1] = Inhibition of porcine pancreatic alpha-amylase using starch as substrate preincubated for 10 mins followed by substrate addition and measured after 5 mins; design: species or system Sus scrofa
[2] = Inhibition of alpha-amylase (unknown origin) using starch as substrate measured after 30 mins; design: species or system Homo sapiens
[3] = organism: Homo sapiens; experiment: Inhibition of alpha-amylase (unknown origin) using starch as substrate preincubated for 10 mins followed by substrate addition and measured after 10 mins relative to control; design: concentration or dose not given beside the values; details: time 20.0 min
[4] = organism: Homo sapiens; experiment: Inhibition of alpha-glucosidase (unknown origin) using p-NPG as substrate preincubated for 5 mins followed by substrate addition and measured after 30 mins relative to control; design: concentration or dose not given beside the values; details: time 35.0 min
[5] = Inhibition of alpha-amylase (unknown origin); design: species or system Homo sapiens
[6] = Inhibition of porcine pancreatic alpha-amylase using starch as substrate preincubated for 10 mins followed by substrate addition and measured after 30 mins; design: species or system Sus scrofa
[7] = Inhibition of alpha-amylase (unknown origin) using starch as substrate preincubated for 10 mins followed by substrate addition and measured after 10 mins; design: species or system Homo sapiens

| Compound | inhibition [3] | inhibition [4] | further results |
| --- | --- | --- | --- |
| COC(=O)[C@@H]1N[C@@]2(C(=O)Nc3ccc(Br)cc32)[C@@]2(SC(=S)NC2=O)[C@H]1c1ccccc1 |  |  | IC50 [1]: 1.49 µM |
| COc1ccc(C2C(C#N)=C(NC(C)=O)Oc3oc4ccccc4c(=O)c32)cc1 (configuration not stated) |  |  | IC50 [2]: 0.00204 µM |
| O=C(CN1C(=O)/C(=C/c2nccs2)SC1=S)Nc1ccc(Br)cc1F | 22.6% | 9.25% |  |
| Cn1ccnc1/C=C1\SC(=S)N(CC(=O)Nc2c(F)cc(Br)cc2Cl)C1=O | 38.2% | 8.25% |  |
| O=C(Cc1c[nH]c2ccccc12)NNS(=O)(=O)c1ccccc1F |  |  | IC50 [5]: 1.8 µM |
| CC(=O)N1C(=O)C(Cc2cn(-c3ccc([N+](=O)[O-])cc3[N+](=O)[O-])nc2-c2ccc(O)cc2)SC1=S (configuration not stated) |  |  | IC50 [6]: 638 µM |
| CC(C)CNC(=O)CN1C(=O)/C(=C/c2nc3ccccc3s2)SC1=S | 43.2% | 6.23% |  |
| CC(C)CNC(=O)CN1C(=O)/C(=C/c2nccs2)SC1=S | 30.4% | 6.43% |  |
| COc1ccc(C(=O)NC(=O)NC2CC2)cc1 |  |  | IC50 [5]: 1.57 µM |
| Oc1ccc(-c2nnc(CSc3nc4ccccc4[nH]3)o2)c(O)c1 |  |  | IC50 [5]: 6.2 µM |

Second part, led by results:

| inhibition [3] | inhibition [4] | Compound | further results |
| --- | --- | --- | --- |
| 40.1% | 6.16% | O=C(CN1C(=O)/C(=C/c2nc3ccccc3s2)SC1=S)Nc1c(F)cc(F)cc1Br |  |
| 42.8% | 4.85% | O=C(CN1C(=O)/C(=C/c2nccs2)SC1=S)Nc1c(F)cc(F)cc1Br |  |
| 68.2% | 10.2% | O=C(CN1C(=O)/C(=C/c2csc3ccccc23)SC1=S)Nc1c(F)cc(Br)cc1Cl | IC50 [7]: 154 µM |
| 37.8% | 7.87% | O=C(CN1C(=O)/C(=C/c2csc3ccccc23)SC1=S)Nc1cccnn1 |  |
| 69.2% | 7.65% | O=C(CN1C(=O)/C(=C/c2nc3ccccc3s2)SC1=S)Nc1ccc(Br)cc1F | IC50 [7]: 128 µM |
| 23.3% | 4.88% | CC(C)CNC(=O)CN1C(=O)/C(=C/c2nccn2C)SC1=S |  |
| 14.7% | 4.31% | O=C(CN1C(=O)/C(=C/c2csc3ccccc23)SC1=S)Nc1ccc(Br)cc1F |  |
| 10.2% | 8.36% | Cn1ccnc1/C=C1\SC(=S)N(CC(=O)Nc2ccc(Br)cc2F)C1=O |  |
